The text below walks through data of patent US7217730B2, “Method for the use of pyranoindole derivatives to treat infection with Hepatitis C virus” (Wyeth, priority 2002, dated 2007).

Test [1] concerns the target BB7 (RNA-dependent RNA polymerase hepatitis C virus protein sequence derived from HCV replicon) (Hepatitis C virus genotype 1b, UniProt Q9WMX2). As to the kind of experiment: Hepatitis C polymerase inhibition, BB7 sequence. In kind it is biochemical. Conditions: Table 1B.
Test [2] has as its target T1, NS5B from the BK strain (genotype 1b) (Hepatitis C virus genotype 1b, UniProt P26663).
T1 construct: NS5B from the BK strain (genotype 1b) is expressed in E. coli as a protein in which the 21 C-terminal amino acids are replaced; made in house; host or cells: E. coli
As to the kind of experiment: Hepatitis C polymerase inhibition, NS5B BK strain, 33P-GTP filter assay. In kind it is biochemical. Conditions: Table 1B; NS5B BK strain; read-out: BK IC50. The method in brief: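 Radiolabelled RNA synthesis was measured by filter capture and scintillation counting after EDTA stop. His-tagged, C-terminally truncated (Δ21) genotype 1b BK NS5B from E. coli, pre-exposed to compound for 15 min, copied a self-primed RNA template (~3 nM) with α-[33P]-GTP for 2 h at room temperature.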

T1 sequence (P26663 2420-2989): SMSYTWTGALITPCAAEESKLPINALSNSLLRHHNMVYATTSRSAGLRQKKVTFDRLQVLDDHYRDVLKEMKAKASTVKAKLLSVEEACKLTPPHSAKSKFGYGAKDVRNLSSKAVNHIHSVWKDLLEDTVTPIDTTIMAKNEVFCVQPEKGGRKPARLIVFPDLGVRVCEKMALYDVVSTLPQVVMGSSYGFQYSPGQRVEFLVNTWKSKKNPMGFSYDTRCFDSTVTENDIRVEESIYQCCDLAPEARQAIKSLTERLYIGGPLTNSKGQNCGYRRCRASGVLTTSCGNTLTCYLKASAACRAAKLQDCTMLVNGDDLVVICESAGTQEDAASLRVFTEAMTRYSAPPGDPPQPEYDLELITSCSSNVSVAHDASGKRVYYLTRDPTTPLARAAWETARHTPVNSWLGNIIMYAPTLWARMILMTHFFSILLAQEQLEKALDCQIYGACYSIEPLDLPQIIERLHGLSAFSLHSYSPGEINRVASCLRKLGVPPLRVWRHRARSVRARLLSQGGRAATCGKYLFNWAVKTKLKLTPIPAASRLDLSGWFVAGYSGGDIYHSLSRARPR
BB7 (RNA-dependent RNA polymerase hepatitis C virus protein sequence derived from HCV replicon), sequence (Q9WMX2 2420-3010): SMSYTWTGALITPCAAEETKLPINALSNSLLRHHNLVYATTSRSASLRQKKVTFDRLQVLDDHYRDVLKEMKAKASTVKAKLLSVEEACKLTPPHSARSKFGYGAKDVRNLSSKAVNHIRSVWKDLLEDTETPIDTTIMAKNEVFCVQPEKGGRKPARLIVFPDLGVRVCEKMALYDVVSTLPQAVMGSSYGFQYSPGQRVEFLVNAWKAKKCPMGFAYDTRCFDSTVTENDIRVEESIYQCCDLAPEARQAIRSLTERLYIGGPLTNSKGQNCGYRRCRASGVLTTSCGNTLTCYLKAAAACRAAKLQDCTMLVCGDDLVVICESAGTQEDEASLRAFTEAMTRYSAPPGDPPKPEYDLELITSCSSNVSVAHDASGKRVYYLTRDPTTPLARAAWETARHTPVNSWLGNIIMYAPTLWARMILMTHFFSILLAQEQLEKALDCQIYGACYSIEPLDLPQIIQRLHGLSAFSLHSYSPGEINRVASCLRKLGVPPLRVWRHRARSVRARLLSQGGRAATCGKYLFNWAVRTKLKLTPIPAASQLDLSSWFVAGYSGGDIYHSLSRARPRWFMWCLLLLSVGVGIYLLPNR

Regarding `CSCC1(CC(=O)O)OCCc2c1[nH]c1c(F)ccc(C#N)c21` (centres unmarked) [Example 305, (5-cyano-8-fluoro-1-methylthiomethyl-1,3,4,9-tetrahydropyrano[3,4-b]indol-1-yl)acetic acid], the IC50 in test [1] and in test [2] was more than 30 µM throughout.

On to `CCCC1(CC(=O)O)OCCc2c1[nH]c1c(C(C)C)ccc(C#N)c21` (centres unmarked) [Example 297, [5-cyano-8-(1-methylethyl)-1-propyl-1,3,4,9-tetrahydropyrano[3,4-b]indol-1-yl]acetic acid], for which the IC50 amounted to 2.8 µM in test [1] and 1.8 µM in test [2].

As for “[5-cyano-1-(1-ethylethyl)-8-fluoro-1,3,4,9-tetrahydropyrano[3,4-b]indol-1-yl]acetic acid [Example 311]”, the IC50 in test [1] and in test [2] was more than 30 µM each time.

Consider `CCCC1(CC(=O)O)OCCc2c1[nH]c1c(C)c(C(=O)NC)cc(C#N)c21` (centres unmarked) [Example 357, (5-cyano-8-methyl-7-methylcarbamoyl-1-propyl-1,3,4,9-tetrahydro-pyrano[3,4-b]indol-1-yl)-acetic acid], for which the values for the IC50 in test [1] and in test [2] were 0.97 µM and 1.3 µM, respectively.

In the case of `CCCC1(C(=O)O)OCCc2c1[nH]c1c(C)ccc(Cl)c21` (centres unmarked) [Example 330, (5-chloro-8-methyl-1-propyl-1,3,4,9-tetrahydropyrano[3,4-b]indol-1-yl)carboxylic acid], the IC50 in test [1] was 8.4 µM; in test [2], 1.6 µM.

Take `CCC(C)C1(CC(=O)O)OCCc2c1[nH]c1c(C)ccc(C#N)c21` (racemic) [Example 291, (1R*,10S)-[5-cyano-8-methyl-1-(1-methylpropyl)-1,3,4,9-tetrahydropyrano[3,4-b]indol-1-yl]acetic acid]: the figures for the IC50 in test [1] and in test [2] were 0.5 µM and 0.23 µM, respectively.

On to `CCCC1(CC(=O)O)OCCc2c1[nH]c1c(Cl)ccc(C)c21` (centres unmarked) [Example 262, (8-chloro-5-methyl-1-propyl-1,3,4,9-tetrahydropyrano[3,4-b]indol-1-yl)acetic acid], for which the figures for the IC50 in test [1] and in test [2] were 8.3 µM and 2.7 µM, respectively.

With `N#Cc1ccc(F)c2[nH]c3c(c12)CCOC3(CC(=O)O)C1CCCC1` (centres unmarked) [Example 308, (5-cyano-1-cyclopentyl-8-fluoro-1,3,4,9-tetrahydropyrano[3,4-b]indol-1-yl)acetic acid], the IC50 in test [1] and in test [2] was more than 30 µM throughout.

As for `N#Cc1ccc(F)c2[nH]c3c(c12)CCOC3(CC(=O)O)C1CCC1` (centres unmarked) [Example 307, (5-cyano-1-cyclobutyl-8-fluoro-1,3,4,9-tetrahydropyrano[3,4-b]indol-1-yl)acetic acid], the IC50 was 9.6 µM in test [1] and 5.8 µM in test [2].

As for `CC[C@@H](C)[C@@]1(C(=O)O)OCCc2c1[nH]c1c(F)ccc(C#N)c21` (relative stereo) [Example 349, (1R*,10R*)-[5-cyano-8-fluoro-1-(1-methylpropyl)-1,3,4,9-tetrahydropyrano[3,4-b]indol--1-yl]carboxylic acid], the IC50 in test [1] was more than 24 µM; in test [2], 4.4 µM.

With `CCCC1(CC(=O)O)OCCc2c1[nH]c1c(C)c(OCc3ccccc3)cc(C#N)c21` (centres unmarked) [Example 368, (7-benzyloxy-5-cyano-8-methyl-1-propyl-1,3,4,9-tetrahydro-pyrano[3,4-b]indol-1-yl)-acetic acid], the IC50 in test [1] turned out to be 0.13 µM; in test [2], 0.11 µM.

Take `N#Cc1ccc(F)c2[nH]c3c(c12)CCOC3(CCC(F)(F)F)CC(=O)O` (centres unmarked) [Example 301, [5-cyano-8-fluoro-1-(3,3,3-trifluoropropyl)-1,3,4,9-tetrahydropyrano[3,4-b]indol-1-yl]acetic acid]: the IC50 is 11.3 µM in test [1] and 5.4 µM in test [2].

For the molecule `CC[C@H](C)[C@@]1(CC(=O)O)OCCc2c1[nH]c1c(F)ccc(C#N)c21` [Example 315, (1R,10S)-[5-cyano-8-fluoro-1-(1-methylpropyl)-1,3,4,9-tetrahydropyrano[3,4-b]indol-1-yl]acetic acid], the figures for the IC50 in test [1] and in test [2] were 2.1 µM and 0.4 µM, respectively.

In the case of `O=C(O)CC1(C2CCC2)OCCc2c1[nH]c1c(F)ccc(C(F)(F)F)c21` (centres unmarked) [Example 269, (1-cyclobutyl-8-fluoro-5-trifluoromethyl-1,3,4,9-tetrahydropyrano[3,4-b]indol-1-yl)acetic acid], the IC50 in test [1] and in test [2] was 9.4 µM each time.

Turning to `CCCCC1(CC(=O)O)OCCc2c1[nH]c1c(C)ccc(C(F)(F)F)c21` (centres unmarked) [Example 273, (8-methyl-1-butyl-5-trifluoromethyl-1,3,4,9-tetrahydropyrano[3,4-b]indol-1-yl)acetic acid], the figures for the IC50 in test [1] and in test [2] were 6.5 µM and 1.4 µM, respectively.

Regarding `O=C(O)CC1(C2CCCC2)OCCc2c1[nH]c1c(Cl)ccc(Cl)c21` (centres unmarked) [Example 254, (5,8-dichloro-1-cyclopentyl-1,3,4,9-tetrahydropyrano[3,4-b]indol-1-yl)acetic acid], the figures for the IC50 in test [1] and in test [2] were 5.8 µM and 3.3 µM, respectively.

With `COCCC1(CC(=O)O)OCCc2c1[nH]c1c(Cl)ccc(C(F)(F)F)c21` (centres unmarked) [Example 265, [8-chloro-1-(2-methoxyethyl)-5-trifluoromethyl-1,3,4,9-tetrahydropyrano[3,4-b]indol-1-yl]acetic acid], the IC50 worked out at 22 µM in test [1] and 20 µM in test [2].

Regarding `CCC[C@]1(CC(=O)O)OCCc2c1[nH]c1c(Cl)ccc(C#N)c21` [Example 322, (1R)-(8-chloro-5-cyano-1-propyl-1,3,4,9-tetrahydropyrano[3,4-b]indol-1-yl)acetic acid], the IC50 in test [1] amounted to 0.16 µM; in test [2], 0.04 µM.

As for `O=C(O)CC1(C2CC2)OCCc2c1[nH]c1c(Cl)ccc(Cl)c21` (centres unmarked) [Example 252, (5,8-dichloro-1-cyclopropyl-1,3,4,9-tetrahydropyrano[3,4-b]indol-1-yl)acetic acid], the IC50 in test [1] was 19 µM; in test [2], 7.3 µM.

As to `O=C(O)CC1(CCC(F)(F)F)OCCc2c1[nH]c1ccc(Cl)c(Cl)c21` (centres unmarked) [Example 239, [5,6-dichloro-1-(3,3,3-trifluoropropyl)-1,3,4,9-tetrahydropyrano[3,4-b]indol-1-yl]acetic acid], the IC50 was determined as 5.4 µM in test [1] and 4.6 µM in test [2].

Consider `CCCCOc1cc(C#N)c2c3c([nH]c2c1C)C(CCC)(CC(=O)O)OCC3` (centres unmarked) [Example 365, (7-butoxy-5-cyano-8-methyl-1-propyl-1,3,4,9-tetrahydro-pyrano[3,4-b]indol-1-yl)-acetic acid], for which the IC50 in test [1] amounted to 0.06 µM; in test [2] it was 0.1 µM.

Take `CCCC1(CC(=O)O)OCCc2c1[nH]c1c(CC)ccc(C#N)c21` (centres unmarked) [Example 295, (5-cyano-8-ethyl-1-propyl-1,3,4,9-tetrahydropyrano[3,4-b]indol-1-yl)acetic acid]: the results for the IC50 in test [1] and in test [2] were 3.1 µM and 3.6 µM, respectively.

Consider `CC[C@H](C)C1(CC(=O)O)OCCc2c1[nH]c1c(C#N)ccc(C(F)(F)F)c21` (mixture of isomers) [Example 279, (1R*,10S)-[8-cyano-1-(1-methylpropyl)-5-trifluoromethyl-1,3,4,9-tetrahydropyrano[3,4-b]indol-1-yl]acetic acid], for which the IC50 in test [1] was 2.4 µM; in test [2], 2 µM.

For the molecule `C=CCCC1(CC(=O)O)OCCc2c1[nH]c1c(F)ccc(C#N)c21` (centres unmarked) [Example 302, [1-(3-butenyl)-5-cyano-8-fluoro-1,3,4,9-tetrahydropyrano[3,4-b]indol-1-yl]acetic acid], the IC50 in test [1] turned out to be 18 µM; in test [2], 4 µM.

As to `CCCC1(CC(=O)O)OCCc2c1[nH]c1c(C)c(OCCCF)cc(C#N)c21` (centres unmarked) [Example 370, [5-cyano-7-(3-fluoro-propoxy)-8-methyl-1-propyl-1,3,4,9-tetrahydro-pyrano[3,4-b]indol-1-yl]acetic acid], the IC50 in test [1] was 0.03 µM; in test [2], 0.04 µM.

Take `CCCC1(CC(=O)O)OCCc2c1[nH]c1c(C)ccc(C(F)(F)F)c21` (centres unmarked) [Example 272, (8-methyl-1-propyl-5-trifluoromethyl-1,3,4,9-tetrahydropyrano[3,4-b]indol-1-yl)acetic acid]: the figures for the IC50 in test [1] and in test [2] were 1.5 µM and 0.5 µM, respectively.

On to `O=C(O)CC1(C2CCCCC2)OCCc2c1[nH]c1c(Cl)ccc(Cl)c21` (centres unmarked) [Example 255, (5,8-dichloro-1-cyclohexyl-1,3,4,9-tetrahydropyrano[3,4-b]indol-1-yl)acetic acid], for which the IC50 is 15 µM in test [1] and more than 30 µM in test [2].

With `C=CCCC1(CC(=O)O)OCCc2c1[nH]c1c(Cl)ccc(Cl)c21` (centres unmarked) [Example 251, [5,8-dichloro-1-(3-butenyl)-1,3,4,9-tetrahydropyrano[3,4-b]indol-1-yl]acetic acid], the IC50 in test [1] stood at 3.5 µM; in test [2], 1.7 µM.

Take `CC[C@H](C)[C@@]1(CC(=O)O)OCCc2c1[nH]c1c(F)ccc(C#N)c21` (racemic) [Example 313, (1R*,10S*)-[5-cyano-8-fluoro-1-(1-methylpropyl)-1,3,4,9-tetrahydropyrano[3,4-b]indol-1-yl]acetic acid]: the IC50 in test [1] was 1.5 µM; in test [2], 1.8 µM.

For the molecule `O=C(O)CC1(C2CCC2)OCCc2c1[nH]c1c(Cl)ccc(Cl)c21` (centres unmarked) [Example 253, (5,8-dichloro-1-cyclobutyl-1,3,4,9-tetrahydropyrano[3,4-b]indol-1-yl)acetic acid], the results for the IC50 in test [1] and in test [2] were 0.7 µM and 0.35 µM, respectively.

Consider `O=C(O)CC1(C2CCCC2)OCCc2c1[nH]c1ccc(Cl)c(Cl)c21` (centres unmarked) [Example 236, (5,6-dichloro-1-cyclopentyl-1,3,4,9-tetrahydropyrano[3,4-b]indol-1-yl)acetic acid], for which the IC50 in test [1] was 9.6 µM; in test [2], 10 µM.
